Assay results published in patent publication US20090247455A1, “Isolation of Inhibitors of IRES-Mediated Translation” (priority 2005, published 2009).

Tested on: HEK293 cells comprising the pcDNA3-red-HCVIRES-gpt vector
Test: Growth of HEK293 cells with the IRES-gpt construct versus control cells in 6-thioxanthine (OD 590 nm)
Type: cell-based
Conditions: 100 μM, up to 9 days, OD at days 2, 6 and 9, versus control cells
Protocol: FIG. 3 is a graphical representation showing the growth of HEK293 cells comprising a construct in which a gpt gene is placed under the control of a HCV IRES or control cells grown in the presence or absence of 6-thioxanthine (100 μM). The number of days of 6-thioxanthine treatment is indicated on the X-axis. The optical density at 590 nm of the tissue culture flask containing the cells is shown on the Y-axis. […] The OD590 of cells comprising the IRES-gpt construct grown in the absence of 6-thioxanthine are represented by solid squares and dashed line. The OD590 of cells comprising the IRES-gpt construct grown in the presence of 6-thioxanthine are represented by solid squares and solid line.
Cells were also screened to determine those capable of expressing gpt under the control of HCV IRES. Briefly, transfected cells or control cells were maintained either in the absence or presence of 6-thioxanthine (100 μM) for up to 9 days. To determine any change in cell number an optical density measurement was performed at 590 nm at days 2, 6 and 9 after the addition of 6-thioxanthine to the relevant cells.

O=c1[nH]c(=S)c2[nH]cnc2[nH]1 [6-thioxanthine]
susceptibility of cells to 6-thioxanthine selection (optical density at 590 nm): considerably more susceptible
